Test results: ChEMBL document CHEMBL4396937, “Synthesis of new triazole fused imidazo[2,1-b]thiazole hybrids with emphasis on Staphylococcus aureus virulence factors” (Bioorg Med Chem Lett, 2019)
Converted amounts (≈) assume the structure as drawn. The source made the active and inactive calls. The calls are words filed in the database; no cut-off is given here.

Columns and labels:
[1] = tested on: Bacillus subtilis; assay: Antibacterial activity against Bacillus subtilis MTCC 121 assessed as reduction in bacterial growth incubated for 24 hrs by agar well diffusion method; assay type: functional; details: MTCC 121, 24 h
[2] = tested on: Staphylococcus aureus; assay: Antibacterial activity against Staphylococcus aureus MLS-16 MTCC 2940 assessed as reduction in bacterial growth incubated for 24 hrs by agar well diffusion method; assay type: functional; details: MLS-16 MTCC 2940, 24 h
[3] = tested on: Micrococcus luteus; assay: Antibacterial activity against Micrococcus luteus MTCC 2470 assessed as reduction in bacterial growth incubated for 24 hrs by agar well diffusion method; assay type: functional; details: MTCC 2470, 24 h
[4] = tested on: Staphylococcus aureus; assay: Antibacterial activity against Staphylococcus aureus MTCC 96 assessed as reduction in bacterial growth incubated for 24 hrs by agar well diffusion method; assay type: functional; details: MTCC 96, 24 h
[5] = tested on: Escherichia coli; assay: Antibacterial activity against Escherichia coli MTCC 739 assessed as reduction in bacterial growth incubated for 24 hrs by agar well diffusion method; assay type: functional; details: MTCC 739, 24 h
[6] = tested on: Pseudomonas aeruginosa; assay: Antibacterial activity against Pseudomonas aeruginosa MTCC 2453 assessed as reduction in bacterial growth incubated for 24 hrs by agar well diffusion method; assay type: functional; details: MTCC 2453, 24 h
[7] = tested on: Raoultella planticola; assay: Antibacterial activity against Klebsiella planticola MTCC 530 assessed as reduction in bacterial growth incubated for 24 hrs by agar well diffusion method; assay type: functional; details: MTCC 530, 24 h
[8] = tested on: Candida albicans; assay: Antifungal activity against Candida albicans MTCC 3017 assessed as reduction in fungal growth incubated for 24 hrs by agar well diffusion method; assay type: functional
[9] = tested on: Bacillus subtilis; assay: Bactericidal activity against Bacillus subtilis MTCC 121 assessed as reduction in bacterial survival incubated for 24 hrs followed by transfer of microbial suspension to agar plates and measured at 24 hrs post transfer by agar well diffusion method; assay type: functional; details: MTCC 121, 24 h
[10] = tested on: Staphylococcus aureus; assay: Bactericidal activity against Staphylococcus aureus MLS-16 MTCC 2940 assessed as reduction in bacterial survival incubated for 24 hrs followed by transfer of microbial suspension to agar plates and measured at 24 hrs post transfer by agar well diffusion method; assay type: functional; details: MLS-16 MTCC 2940, 24 h
[11] = tested on: Micrococcus luteus; assay: Bactericidal activity against Micrococcus luteus MTCC 2470 assessed as reduction in bacterial survival incubated for 24 hrs followed by transfer of microbial suspension to agar plates and measured at 24 hrs post transfer by agar well diffusion method; assay type: functional; details: MTCC 2470, 24 h
[12] = tested on: Staphylococcus aureus; assay: Bactericidal activity against Staphylococcus aureus MTCC 96 assessed as reduction in bacterial survival incubated for 24 hrs followed by transfer of microbial suspension to agar plates and measured at 24 hrs post transfer by agar well diffusion method; assay type: functional; details: MTCC 96, 24 h
[13] = tested on: Escherichia coli; assay: Bactericidal activity against Escherichia coli MTCC 739 assessed as reduction in bacterial survival incubated for 24 hrs followed by transfer of microbial suspension to agar plates and measured at 24 hrs post transfer by agar well diffusion method; assay type: functional; details: MTCC 739, 24 h
[14] = tested on: Pseudomonas aeruginosa; assay: Bactericidal activity against Pseudomonas aeruginosa MTCC 2453 assessed as reduction in bacterial survival incubated for 24 hrs followed by transfer of microbial suspension to agar plates and measured at 24 hrs post transfer by agar well diffusion method; assay type: functional; details: MTCC 2453, 24 h
[15] = tested on: Raoultella planticola; assay: Bactericidal activity against Klebsiella planticola MTCC 530 assessed as reduction in bacterial survival incubated for 24 hrs followed by transfer of microbial suspension to agar plates and measured at 24 hrs post transfer by agar well diffusion method; assay type: functional; details: MTCC 530, 24 h
[16] = tested on: Candida albicans; assay: Fungicidal activity against Candida albicans MTCC 3017 assessed as reduction in fungal survival incubated for 24 hrs followed by transfer of microbial suspension to agar plates and measured at 24 hrs post transfer by agar well diffusion method; assay type: functional
[17] = tested on: Bacillus subtilis; assay: Antibiofilm activity against Bacillus subtilis MTCC 121 assessed as inhibition of biofilm formation by crystal violet staining-based microtitre plate assay; assay type: functional, organism-based
[18] = tested on: Staphylococcus aureus; assay: Antibiofilm activity against Staphylococcus aureus MLS-16 MTCC 2940 assessed as inhibition of biofilm formation by crystal violet staining-based microtitre plate assay; assay type: functional, organism-based
[19] = tested on: Micrococcus luteus; assay: Antibiofilm activity against Micrococcus luteus MTCC 2470 assessed as inhibition of biofilm formation by crystal violet staining-based microtitre plate assay; assay type: functional, organism-based
[20] = tested on: Staphylococcus aureus; assay: Antibiofilm activity against Staphylococcus aureus MTCC 96 assessed as inhibition of biofilm formation by crystal violet staining-based microtitre plate assay; assay type: functional, organism-based
[21] = tested on: Pseudomonas aeruginosa; assay: Antibiofilm activity against Pseudomonas aeruginosa MTCC 2453 assessed as inhibition of biofilm formation by crystal violet staining-based microtitre plate assay; assay type: functional, organism-based
[22] = tested on: Raoultella planticola; assay: Antibiofilm activity against Klebsiella planticola MTCC 530 assessed as inhibition of biofilm formation by crystal violet staining-based microtitre plate assay; assay type: functional, organism-based
[23] = tested on: MRC5; assay: Cytotoxicity against human MRC5 cells assessed as reduction in cell viability incubated for 48 hrs by MTT assay; assay type: cell-based; details: MRC5, 48 h
[24] = tested on: Staphylococcus aureus; assay: Antibiofilm activity against Staphylococcus aureus MTCC 96 assessed as inhibition of biofilm formation incubated for 48 hrs in presence of Escherichia coli MTCC 739 by FE-SEM analysis; assay type: functional, organism-based; details: MTCC 96, 48 h
[25] = tested on: Escherichia coli; assay: Antibiofilm activity against Escherichia coli MTCC 739 assessed as inhibition of biofilm formation by crystal violet staining-based microtitre plate assay; assay type: functional, organism-based
[26] = tested on: Staphylococcus aureus; assay: Antibiofilm activity against Staphylococcus aureus MTCC 96 assessed as disruption and cell damage at bactericidal MBC incubated for 48 hrs by FE-SEM analysis; assay type: functional, organism-based
[27] = tested on: Escherichia coli; assay: Antibiofilm activity against Escherichia coli MTCC 739 assessed as inhibition of biofilm formation incubated for 48 hrs in presence of Staphylococcus aureus MTCC 96 by FE-SEM analysis; assay type: functional, organism-based; details: MTCC 739, 48 h
[28] = tested on: Escherichia coli; assay: Antibiofilm activity against Escherichia coli MTCC 739 assessed as cell lysis with damaged membrane at bactericidal MBC incubated for 48 hrs by FE-SEM analysis; assay type: functional, organism-based
[29] = tested on: Staphylococcus aureus; assay: Antibiofilm activity against Staphylococcus aureus MTCC 96 assessed as disruption of biofilm matrix with individual cell lysis at bactericidal MBC incubated for 48 hrs in presence of Escherichia coli MTCC 739 by FE-SEM analysis; assay type: functional, organism-based
[30] = tested on: Escherichia coli; assay: Antibiofilm activity against Escherichia coli MTCC 739 assessed as disruption of biofilm matrix with individual cell lysis at bactericidal MBC incubated for 48 hrs in presence of Staphylococcus aureus MTCC 96 by FE-SEM analysis; assay type: functional, organism-based

| SMILES | MIC [1] [µg/mL] | MIC [2] [µg/mL] | MIC [3] [µg/mL] | MIC [4] [µg/mL] | MIC [5] [µg/mL] | MIC [6] [µg/mL] | MIC [7] [µg/mL] | MBC [9] [µg/mL] | MBC [10] [µg/mL] | MBC [11] [µg/mL] | MBC [12] [µg/mL] | MBC [13] [µg/mL] | MBC [14] [µg/mL] | MBC [15] [µg/mL] | IC50 [17] [µg/mL] | IC50 [18] [µg/mL] | IC50 [19] [µg/mL] | IC50 [20] [µg/mL] | IC50 [21] [µg/mL] | IC50 [22] [µg/mL] | other results |
| --- | --- | --- | --- | --- | --- | --- | --- | --- | --- | --- | --- | --- | --- | --- | --- | --- | --- | --- | --- | --- | --- |
| O=C(O)c1cn(C2CC2)c2cc(N3CCNCC3)c(F)cc2c1=O [CIPROFLOXACIN] | 0.9 (≈ 2.72 µM) | 0.9 (≈ 2.72 µM) | 0.9 (≈ 2.72 µM) | 0.9 (≈ 2.72 µM) | 0.9 (≈ 2.72 µM) | 0.9 (≈ 2.72 µM) | 0.9 (≈ 2.72 µM) | 1.9 (≈ 5.73 µM) | 1.9 (≈ 5.73 µM) | 1.9 (≈ 5.73 µM) | 1.9 (≈ 5.73 µM) | 1.9 (≈ 5.73 µM) | 1.9 (≈ 5.73 µM) | 1.9 (≈ 5.73 µM) | 6.6 (≈ 19.9 µM) | 6.6 (≈ 19.9 µM) | 6.8 (≈ 20.5 µM) | 6.7 (≈ 20.2 µM) | 7.4 (≈ 22.3 µM) | 8.6 (≈ 26 µM) | MIC [8]: inactive; MFC [16]: inactive; IC50 [23]: 53.4 µg/mL (≈ 161 µM); IC50 [24]: 11.6 µg/mL |
| O=C(c1cn(-c2ccc(Cl)cc2)nn1)c1c(-c2ccccc2)nc2sccn12 | 3.9 (≈ 9.61 µM) | 1.9 (≈ 4.68 µM) | 3.9 (≈ 9.61 µM) | 1.9 (≈ 4.68 µM) | 1.9 (≈ 4.68 µM) | 3.9 (≈ 9.61 µM) | 3.9 (≈ 9.61 µM) | 7.8 (≈ 19.2 µM) | 3.9 (≈ 9.61 µM) | 7.8 (≈ 19.2 µM) | 3.9 (≈ 9.61 µM) | 3.9 (≈ 9.61 µM) | 7.8 (≈ 19.2 µM) | 7.8 (≈ 19.2 µM) | 11.4 (≈ 28.1 µM) | 10.6 (≈ 26.2 µM) | 11.2 (≈ 27.7 µM) | 9.8 (≈ 24.1 µM) | 14.2 (≈ 35 µM) | 14.6 (≈ 36 µM) | MIC ([8]; MTCC 3017, 24 h): 7.8 µg/mL (≈ 19.2 µM); MFC ([16]; MTCC 3017, 24 h): 15.6 µg/mL (≈ 38.4 µM); IC50 [25]: 10.3 µg/mL (≈ 25.4 µM); IC50 [23]: 36.1 µg/mL (≈ 88.9 µM); Activity [26]: Active; IC50 [27]: 14.3 µg/mL; Activity [28]: Active; IC50 [24]: 14.3 µg/mL; Activity [29]: Active; Activity [30]: Active |
| O=C(c1cn(-c2ccc(Br)cc2)nn1)c1c(-c2ccccc2)nc2sccn12 | 3.9 (≈ 8.66 µM) | 3.9 (≈ 8.66 µM) | 7.8 (≈ 17.3 µM) | 3.9 (≈ 8.66 µM) | 3.9 (≈ 8.66 µM) | 3.9 (≈ 8.66 µM) | 3.9 (≈ 8.66 µM) | 7.8 (≈ 17.3 µM) | 7.8 (≈ 17.3 µM) | 15.6 (≈ 34.6 µM) | 7.8 (≈ 17.3 µM) | 7.8 (≈ 17.3 µM) | 7.8 (≈ 17.3 µM) | 7.8 (≈ 17.3 µM) | 16 (≈ 35.5 µM) | 14.4 (≈ 32 µM) | 13.9 (≈ 30.9 µM) | 21.8 (≈ 48.4 µM) | 20.2 (≈ 44.9 µM) | 21.1 (≈ 46.9 µM) | MIC ([8]; MTCC 3017, 24 h): 7.8 µg/mL (≈ 17.3 µM); MFC ([16]; MTCC 3017, 24 h): 15.6 µg/mL (≈ 34.6 µM); IC50 [25]: 20.2 µg/mL (≈ 44.9 µM); IC50 [23]: 28.1 µg/mL (≈ 62.4 µM) |
| O=C(c1cn(-c2ccc(Br)cc2)nn1)c1c(-c2ccc(Cl)cc2)nc2sccn12 | 3.9 (≈ 8.05 µM) | 7.8 (≈ 16.1 µM) | 3.9 (≈ 8.05 µM) | 3.9 (≈ 8.05 µM) | 3.9 (≈ 8.05 µM) | 3.9 (≈ 8.05 µM) | 3.9 (≈ 8.05 µM) | 7.8 (≈ 16.1 µM) | 15.6 (≈ 32.2 µM) | 7.8 (≈ 16.1 µM) | 7.8 (≈ 16.1 µM) | 7.8 (≈ 16.1 µM) | 7.8 (≈ 16.1 µM) | 15.6 (≈ 32.2 µM) | 13.5 (≈ 27.8 µM) | 14 (≈ 28.9 µM) | 16 (≈ 33 µM) | 21.3 (≈ 43.9 µM) | 17.5 (≈ 36.1 µM) | 20.5 (≈ 42.3 µM) | MIC ([8]; MTCC 3017, 24 h): 7.8 µg/mL (≈ 16.1 µM); MFC ([16]; MTCC 3017, 24 h): 15.6 µg/mL (≈ 32.2 µM); IC50 [25]: 16.2 µg/mL (≈ 33.4 µM); IC50 [23]: 37.3 µg/mL (≈ 76.9 µM) |
